In assay [1] the test system is formalin-induced flinching. Description: animal or person. The assay is classed as in vivo, male Sprague-Dawley rats. The note with it: rat, in vivo.
Assay [2] has as its target T1, cloned human kappa receptor (Homo sapiens, UniProt P41145). Nature of the assay: biochemical. It counts as binding. Details: (3H)-Diprenorphin, % / k [3H] Diprenorphin, %: dose or concentration left out as unconfirmed. The note with it: for inhibition at 1 µM: read-out: 3H-Diprenorphin, % @ 1 uM.
Assay [3] has as its target T1, cloned human kappa receptor. Description: [3H]U69593 (agonist) binding to the cloned human kappa receptor.

The structures appear in SMILES notation. “And” between values parts separate entries of the source, which are not always exact repeats. Equal values may be shown once. Where a name gives a salt, the structure may show the parent alone.

T1 sequence (P41145 whole entry): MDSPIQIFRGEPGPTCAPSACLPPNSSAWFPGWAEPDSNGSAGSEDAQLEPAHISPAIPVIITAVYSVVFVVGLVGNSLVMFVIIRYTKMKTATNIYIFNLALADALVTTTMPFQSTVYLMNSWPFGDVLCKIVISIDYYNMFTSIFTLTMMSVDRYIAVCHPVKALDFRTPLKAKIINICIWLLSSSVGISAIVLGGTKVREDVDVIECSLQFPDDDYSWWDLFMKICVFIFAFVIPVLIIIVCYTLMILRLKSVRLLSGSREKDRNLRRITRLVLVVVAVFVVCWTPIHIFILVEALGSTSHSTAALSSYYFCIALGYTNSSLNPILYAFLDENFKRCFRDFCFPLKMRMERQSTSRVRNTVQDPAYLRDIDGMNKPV

`CS(=O)(=O)N1CCN(C(=O)Cc2ccc(Cl)c(Cl)c2)C(CN2CCCC2)C1` (racemic) [(R,S-8a), (R,S)-4-Methanesulfonyl-1-[(3,4-dichlorophenyl)acetyl]-2-[(1-pyrrolidinyl)methyl]-piperazine hydrochloride]: the “Late Phase Formalin, % @ 300; i.paw” value in assay [1] amounted to 96% @ 300. The Ki – broadly, the dissociation constant of the complex between target and ligand, obtained from inhibition or displacement – is 5.4 nM and 4 nM in assay [2] (Ki, nM 3H-Diprenorphin); 0.37 nM and 0.65 nM in assay [3] (Ki, nM 3H-U-69,593).

As to `CS(=O)(=O)N1CCN(C(=O)Cc2ccc(C(F)(F)F)cc2)C(CN2CCCC2)C1` (racemic) [(R,S-8d), (R,S)-4-Methanesulfonyl-1-[(4-trifluoromethylphenyl)acetyl]-2-[(1-pyrrolidinyl)-methyl]piperazine hydrochloride], in assay [1], the “Late Phase Formalin, % @ 300; i.paw” value was found to be 97% @ 300. For the same compound, the Ki in assay [2] (Ki, nM 3H-Diprenorphin) was 16 nM and 17 nM; in assay [3] (Ki, nM 3H-U-69,593), 1.3 nM and 1.9 nM.

Turning to `CS(=O)(=O)N1CCN(C(=O)Cc2c[nH]c3ccccc23)C(CN2CCCC2)C1` (racemic) [(R,S-8e), (R,S)-4-Methanesulfonyl-1-[(3-indolylacetyl-2-[(1-pyrrolidinyl)-methyl]piperazine hydrochloride], the inhibition at 1 µM in assay [2] was 74%. In assay [3] (Ki, nM 3H-U-69,593), the Ki was 5.3 nM and 3.2 nM.

As to `COC(=O)N1CCN(C(=O)Cc2ccc(S(C)(=O)=O)cc2)C(CN2CCCC2)C1` (racemic) [(R,S-9a), (R,S)-Methyl 4-[(4-methylsulfonylphenyl)acetyl]-3-[(1-pyrrolidinyl)-methyl]-1-piperazinecarboxylate hydrochloride], in assay [1], the “Late Phase Formalin, % @ 300; i.paw” value turned out to be 46% @ 300. In addition, the inhibitory constant (Ki) in assay [2] (Ki, nM 3H-Diprenorphin) is 11 nM; in assay [3] (Ki, nM 3H-U-69,593) it was 0.37 nM and 0.42 nM.

Consider `COC(=O)N1CCN(C(=O)Cc2ccc(C(F)(F)F)cc2)C(CN2CCCC2)C1` (racemic) [(R,S-9b), (R,S)-Methyl 4-[(4-trifluoromethylphenyl)acetyl]-3-[(1-pyrrolidinyl)-methyl]-1-piperazinecarboxylate hydrochloride], for which the “Late Phase Formalin, % @ 300; i.paw” value in assay [1] came out at 98% @ 300. The inhibition constant (Ki) in assay [2] (Ki, nM 3H-Diprenorphin) was 0.49 nM; in assay [3] (Ki, nM 3H-U-69,593) it was 0.076 nM and 0.13 nM.

Consider `COC(=O)N1CCN(C(=O)Cc2c[nH]c3ccccc23)C(CN2CCCC2)C1` (racemic) [(R,S-9c), (R,S)-Methyl 4-[(3-indolyl)acetyl]-3-[(1-pyrrolidinyl)-methyl]-1-piperazine-carboxylate hydrochloride], for which, in assay [1], the “Late Phase Formalin, % @ 300; i.paw” value was 95% @ 300. Moreover, the Ki in assay [2] (Ki, nM 3H-Diprenorphin) was 3 nM; in assay [3] (Ki, nM 3H-U-69,593), 0.27 nM and 0.4 nM.

As to `COC(=O)N1CCN(C(=O)Cc2ccccc2[N+](=O)[O-])C(CN2CCCC2)C1` (racemic) [(R,S-9d), (R,S)-Methyl 4-[(2-nitrophenyl)acetyl]-3-[(1-Pyrrolidinyl)-methyl]-1-piperazine-carboxylate hydrochloride], the “Late Phase Formalin, % @ 300; i.paw” value in assay [1] was 93% @ 300. For the same compound, the inhibition constant (Ki) in assay [2] (Ki, nM 3H-Diprenorphin) is 37 nM; in assay [3] (Ki, nM 3H-U-69,593), 0.74 nM and 0.73 nM.

In the case of `COC(=O)N1CCN(C(=O)Cc2ccccc2OC)C(CN2CCCC2)C1` (racemic) [(R,S-9e), hydrochloride], the “Late Phase Formalin, % @ 300; i.paw” value in assay [1] is reported as 98% @ 300. Moreover, the Ki in assay [2] (Ki, nM 3H-Diprenorphin) is 7.3 nM; in assay [3] (Ki, nM 3H-U-69,593), 0.46 nM and 1.3 nM.

For the compound `COC(=O)N1CCN(C(=O)Cc2ccccc2N)C(CN2CCCC2)C1` (racemic) [(R,S-9f), (R,S)-Methyl 4-[(2-aminophenyl)acetyl]-3-[(1-pyrrolidinyl)-methyl]-1-piperazine-carboxylate dihydrochloride], in assay [1], the “Late Phase Formalin, % @ 300; i.paw” value amounted to 97% @ 300. In addition, the inhibition constant (Ki) in assay [2] (Ki, nM 3H-Diprenorphin) is 4.6 nM and 3.2 nM; in assay [3] (Ki, nM 3H-U-69,593), 0.67 nM and 0.41 nM.

Regarding `CC(=O)N1CCN(C(=O)Cc2ccc(S(C)(=O)=O)cc2)C(CN2CCCC2)C1` (racemic) [(R,S-10a), hydrochloride], the “Late Phase Formalin, % @ 300; i.paw” value in assay [1] was found to be 6% @ 300. Besides, the inhibition at 1 µM in assay [2] stood at 27%. In addition, in assay [3] (Ki, nM 3H-U-69,593), the inhibitory constant (Ki) came to 2.3 nM.

On to `CC(=O)N1CCN(C(=O)Cc2ccccc2C(F)(F)F)C(CN2CCCC2)C1` (racemic) [(R,S-10c), (R,S)-4-Acetyl-1-[(2-trifluoromethylphenyl)acetyl]-3-[(1-pyrrolidinyl)-methyl]piperazinecarboxylate hydrochloride], for which the inhibition at 1 µM in assay [2] worked out at 45%. Further, in assay [3] (Ki, nM 3H-U-69,593), the inhibition constant (Ki) was determined as 16 nM.

Consider `CC(=O)N1CCN(C(=O)Cc2cccc([N+](=O)[O-])c2)C(CN2CCCC2)C1` (racemic) [(R,S-10d), (R,S)-4-Acetyl-1-[(3-nitrophenyl)acetyl]-3-[(1-pyrrolidinyl)-methyl]piperazine-carboxylate hydrochloride], for which the inhibition at 1 µM in assay [2] turned out to be 94%. Moreover, the inhibition constant Ki in assay [3] (Ki, nM 3H-U-69,593) was 0.72 nM.

As for `CC(=O)N1CCN(C(=O)Cc2ccccc2[N+](=O)[O-])C(CN2CCCC2)C1` (racemic) [(R,S-10e), (R,S)-4-Acetyl-1-[(2-nitrophenyl)acetyl]-3-[(1-pyrrolidinyl)-methyl]piperazine-carboxylate hydrochloride], the inhibitory constant (Ki) was determined as 541 nM in assay [2] (Table I, read-out: Ki, nM 3H-Diprenorphin) and 24 nM in assay [3] (Ki, nM 3H-U-69,593).

As for `CC(=O)N1CCN(C(=O)Cc2ccc([N+](=O)[O-])cc2)C(CN2CCCC2)C1` (racemic) [(R,S-10f), hydrochloride], in assay [2], the inhibition at 1 µM came to 59%. For the same compound, the affinity in assay [3] (Ki, nM 3H-U-69,593) corresponds to a Ki of 2.4 nM.

On to `CN(C(=O)Cc1ccc(C(F)(F)F)cc1N(S(C)(=O)=O)S(C)(=O)=O)C1CCCCC1N1CCCC1.Cl` (racemic) [Example 5j, (±)-trans-2-Bismethanesulfonamido-4-trifluoromethyl-N-methyl-N-[2-(1-pyrrolidinyl)cyclohexyl]-phenylacetamide Hydrochloride], for which the “% @ 1 μM, diprenorphine” value in assay [2] came to 13% @ 1 μM. The “% @ 1 μM, U-69593” value in assay [3] turned out to be 48% @1 μM.

On to `CN(C(=O)C(c1ccccc1)c1ccccc1)C1CCCCC1N1CCCC1` (racemic) [Example 5s, (±)-trans-N-Methyl-N-[2-(1-pyrrolidinyl)cyclohexyl]2,2-dphenylacetamide Hydrochloride], for which the Ki in assay [2] (Ki(nM) diprenorphine) was determined as 1170 nM; in assay [3] (Ki(nM) U-69593) it was 330 nM.

`COc1ccc2c(c1)[C@H](N(C)C(=O)C(c1ccccc1)c1ccccc1)[C@@H](N1CCCC1)CC2` (racemic) [II-2]: the Ki in assay [2] (Ki (nM) k [3H] Diprenorphin) turned out to be 142 nM; in assay [3] (Ki (nM) k (mg) [3H]U69,593), 20 nM.

For the compound `CN(C(=O)C(c1ccccc1)c1ccccc1)[C@H]1c2cc(O)ccc2CC[C@@H]1N1CCCC1` (racemic) [II-4], the Ki in assay [2] (Table II, read-out: Ki (nM) k [3H] Diprenorphin) was found to be 549 nM; in assay [3] (Table II, read-out: Ki (nM) k (mg) [3H]U69,593), 432 nM.

As for `CCOC(=O)CN(CC(=O)OCC)c1ccc2c(c1)[C@H](N(C)C(=O)Cc1ccc(Cl)c(Cl)c1)[C@@H](N1CCCC1)CC2` (racemic) [II-10], the “Late Phase Formalin, % A @ 300” value in assay [1] is 37% A @ 300. Besides, the Ki in assay [2] (Ki (nM) k [3H] Diprenorphin) was 4.6 nM; in assay [3] (Ki (nM) k (mg) [3H]U69,593) it was 0.68 nM.

Take `CN(C(=O)Cc1ccc(Cl)c(Cl)c1)[C@H]1c2cc(N(CC(=O)OC(C)(C)C)CC(=O)OC(C)(C)C)ccc2CC[C@@H]1N1CCCC1` (racemic) [II-11]: the Ki in assay [2] (Ki (nM) k [3H] Diprenorphin) amounted to 7.4 nM; in assay [3] (Ki (nM) k (mg) [3H]U69,593), 2.8 nM.

Turning to `CN(C(=O)Cc1ccc(Cl)c(Cl)c1)[C@H]1c2cc(N(CC(=O)O)CC(=O)O)ccc2CC[C@@H]1N1CCCC1` (racemic) [II-12], the results for the Ki in assay [2] (Ki (nM) k [3H] Diprenorphin) and in assay [3] (Ki (nM) k (mg) [3H]U69,593) were 3.8 nM and 0.68 nM, respectively.

Take `CCOP(=O)(CCNc1ccc2c(c1)[C@H](N(C)C(=O)Cc1ccc(Cl)c(Cl)c1)[C@@H](N1CCCC1)CC2)OCC` (racemic) [II-13]: the inhibitory constant (Ki) in assay [2] (Ki (nM) k [3H] Diprenorphin) amounted to 6.2 nM; in assay [3] (Ki (nM) k (mg) [3H]U69,593) it was 2.2 nM.

Turning to `CCOP(=O)(Nc1ccc2c(c1)[C@H](N(C)C(=O)Cc1ccc(Cl)c(Cl)c1)[C@@H](N1CCCC1)CC2)OCC` (racemic) [II-14], the Ki amounted to 2.4 nM in assay [2] (Ki (nM) k [3H] Diprenorphin) and 0.6 nM in assay [3] (Ki (nM) k (mg) [3H]U69,593).

For `COc1cc2c(cc1S(=O)(=O)N(C)Cc1ccccc1)[C@H](N(C)C(=O)Cc1ccc(Cl)c(Cl)c1)[C@@H](N1CCCC1)CC2` (racemic) [II-15], the results for the inhibitory constant (Ki) in assay [2] (Ki (nM) k [3H] Diprenorphin) and in assay [3] (Ki (nM) k (mg) [3H]U69,593) were 48 nM and 8 nM, respectively.

On to `CN(C(=O)Cc1ccc(Cl)c(Cl)c1)[C@H]1c2cc(S(=O)(=O)N(C)Cc3ccccc3)ccc2CC[C@@H]1N1CCCC1` (racemic) [II-16], for which the Ki was 200 nM in assay [2] (Ki (nM) k [3H] Diprenorphin) and 40 nM in assay [3] (Ki (nM) k (mg) [3H]U69,593).

Consider `CN(C(=O)C(c1ccccc1)c1ccccc1)[C@H]1c2ccccc2C[C@@H]1N1CCCC1` (racemic) [II-20], for which the “k [3H] Diprenorphin, %” value in assay [2] is given as 29% @ 1 mM. Besides, the affinity in assay [3] corresponds to a Ki of 146 nM.

For the compound `Cl.O=C(Cc1ccc(Cl)c(Cl)c1)N1CCNC[C@@H]1CN1CCCC1` [(R-2), (R)-1-[(3,4-Dichlorophenyl)acetyl]-2-[(1-pyrrolidinyl)methyl]piperazine hydrochloride], the “Late Phase Formalin, % @ 300; i.paw” value in assay [1] is listed as 57% @ 300. Also, the inhibition constant (Ki) in assay [2] (Ki, nM 3H-Diprenorphin) is 14 nM and 17 nM; in assay [3] (Ki, nM 3H-U-69,593) it was 1.5 nM and 1.3 nM.

Regarding `CC(C)(C)CC(=O)N1CCN(C(=O)Cc2ccc(Cl)c(Cl)c2)[C@H](CN2CCCC2)C1` [(R-3b), (R)-4-t-Butyl-acetyl-1-[(3,4-dichlorophenyl)acetyl]-2-[(1-pyrrolidinyl)methyl]-piperazine], the “Late Phase Formalin column, % I @ 1 μM” value in assay [1] came to 75% I @ 1 μM. The “3H-Diprenorphin, % @ 1 uM” value in assay [2] is 30% @ 1 uM. For the same compound, the “3H-U-69,593, % @ 1 uM” value in assay [3] is reported as 75% @ 1 uM.

`CC(C)(C)OC(=O)N[C@H](CC(=O)OCc1ccccc1)C(=O)N1CCN(C(=O)Cc2ccc(Cl)c(Cl)c2)[C@H](CN2CCCC2)C1` [(R-3d), (R)-4-N-t-Boc-D-aspartic acid-β-benzyl ester-1-[(3,4-dichlorophenyl)acetyl]-2-[(1-pyrrolidinyl)methyl]-piperazine]: in assay [2], the “3H-Diprenorphin, % @ 1 uM” value is reported as 36% @ 1 uM. Besides, the inhibitory constant (Ki) in assay [3] (read-out: Ki, nM 3H-U-69,593) is 379 nM and 249 nM.

With `Cl.Cl.NC(CC(=O)O)C(=O)N1CCN(C(=O)Cc2ccc(Cl)c(Cl)c2)[C@H](CN2CCCC2)C1` (stereo partly drawn) [(R-3e), (R)-4-Aspartic acid-1-[(3,4-dichlorophenyl)acetyl]-2-[(1-pyrrolidinyl)methyl]-piperazine dihydrochloride], in assay [1], the “Late Phase Formalin, % @ 300; i.paw” value came to 22% A @ 300. The “3H-Diprenorphin, % @ 1 uM” value in assay [2] came to 39% @ 1 uM. Besides, in assay [3] (dihydrochloride, read-out: Ki, nM 3H-U-69,593), the Ki is 37 nM and 28 nM.

Values taken from patent US20050020576A1, “Kappa agonist compounds and pharmaceutical formulations thereof” (priority 1996, published 2005).
